Where two headings read alike, the source gives them in different places.
How the values were obtained:
[1] = target: T1, hCB2 (Homo sapiens, UniProt P34972); assay: hCB2 radioligand binding assay ([3H]-CP 55,940 displacement); details: HEK membranes
Experimental: (§1) cDNA expression clones for human CB 1 (hCB1, Genbank Accession No. AY225225) and human CB2 (hCB2, Genbank Accession No. AY242132) expressed in vector pcDNA3.1+ were purchased from UMR cDNA Resource Center, Rolla, Mo. (Clone ID CNR01L000 for hCB1; CNR0200000 for hCB2).
(§2) Membranes were isolated from transfected cells as follows. Monolayers of cultured cells were washed twice with phosphate-buffered saline (PBS). […] Homogenates were centrifuged 10 minutes at 1000×g at 4° C. The supernatant was collected and was centrifuged for 1 hour at 40,000×g. The supernatant was then decanted and the resulting pellet was re-suspended in 20 mM HEPES, pH 7.4, 5 mM MgCl2, 1 mM EDTA, 10% sucrose with complete cocktail protease inhibitors. Protein concentration of membrane suspensions were measured by Bradford Protein Assay using bovine serum albumin as the standard (BioRad catalog #500-0006). Protein concentrations of membrane suspensions were adjusted with the final buffer in the range of 5 to 10 mg/mL and were stored at −80° C. until further use.
A rapid filtration technique using Millipore FB filter plates (Catalog #MADVNOB) and filtration apparatus (Millipore system Catalog MAVM0960R) with vacuum aspiration was used to harvest and rinse labeled membranes (8 times with 0.2 mL of chilled binding buffer). […] Binding data were analyzed using GraphPad Prism (GraphPad Software, Inc. San Diego, Calif.).

[2] = target: hCB1 (Homo sapiens, UniProt P21554); assay: hCB1 radioligand binding assay ([3H]-CP 55,940 displacement); details: HEK membranes
hCB1, sequence (P21554 whole entry): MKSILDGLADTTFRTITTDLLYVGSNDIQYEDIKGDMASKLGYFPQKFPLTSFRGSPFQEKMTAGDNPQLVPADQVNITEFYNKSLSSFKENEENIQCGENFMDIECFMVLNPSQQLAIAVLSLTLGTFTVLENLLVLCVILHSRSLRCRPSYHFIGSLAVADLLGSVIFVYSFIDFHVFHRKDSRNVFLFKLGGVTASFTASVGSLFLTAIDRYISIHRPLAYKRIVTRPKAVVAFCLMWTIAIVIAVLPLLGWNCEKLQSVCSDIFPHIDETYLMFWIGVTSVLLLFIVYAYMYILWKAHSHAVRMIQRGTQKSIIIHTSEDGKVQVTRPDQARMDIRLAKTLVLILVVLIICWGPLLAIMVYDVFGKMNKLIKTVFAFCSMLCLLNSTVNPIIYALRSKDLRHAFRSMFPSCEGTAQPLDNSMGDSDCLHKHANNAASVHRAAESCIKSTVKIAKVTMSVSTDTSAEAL
Source text: as §1
Stable, HEK-293-derived cell lines that recombinantly express hCB1 or hCB2 were established. In brief, the clone hCB1 (CNR1L) or hCB2 (CNR2) was transfected into human embryonic kidney cells (HEK-293) using Lipofectamine 2000 (Gibco, Cat#11668-019) according to the manufacturer's protocol. Transfected clones were isolated by single colony purification and clones were screened for receptor expression using a whole cell, ^3H—CP 55,940 radioligand binding assay. HEK-293 stable cells were maintained in Dulbecco's modified Eagles medium (DMEM) containing 10% fetal bovine serum, 2 mM L-glutamine and 0.5 mg/mL G-418.
Membranes were isolated from transfected cells as follows. Monolayers of cultured cells were washed twice with phosphate-buffered saline (PBS). Cells were scraped into 20 mM HEPES, pH 7.4, 10 mM EDTA containing complete cocktail protease inhibitors (Roche, Catalog #11 697 498 001), and were homogenized by an electric-powered mechanical probe homogenizer (Omni GLH; probe G7-195S) for 40 seconds at 7000 rpm. Homogenates were centrifuged 10 minutes at 1000×g at 4° C. The supernatant was collected and was centrifuged for 1 hour at 40,000×g. The supernatant was then decanted and the resulting pellet was re-suspended in 20 mM HEPES, pH 7.4, 5 mM MgCl2, 1 mM EDTA, 10% sucrose with complete cocktail protease inhibitors. Protein concentration of membrane suspensions were measured by Bradford Protein Assay using bovine serum albumin as the standard (BioRad catalog #500-0006). Protein concentrations of membrane suspensions were adjusted with the final buffer in the range of 5 to 10 mg/mL and were stored at −80° C. until further use.
Radioligand binding assays were performed by incubating membranes (2-10 μg protein) prepared from HEK-293 cells expressing recombinant human cannabinoid receptors, CB 1 or CB2, at room temperature with 0.5 nM cannabinoid receptor agonist, [^3H]-CP 55,940 (Perkin Elmer, catalog #NET 1051) in 0.2 mL of binding buffer (50 mM Tris-HCl, pH 7.5, 5 mM MgCl2, 2.5 mM EDTA) and 0.1% fatty acid free bovine serum albumin (Sigma Cat. #A0821) for 90 minutes. A rapid filtration technique using Millipore FB filter plates (Catalog #MADVNOB) and filtration apparatus (Millipore system Catalog MAVM0960R) with vacuum aspiration was used to harvest and rinse labeled membranes (8 times with 0.2 mL of chilled binding buffer). The radioactivity bound to the filters was counted with 0.05 mL of liquid scintillant (UltraGold MV, PerkinElmer catalog #6013159) in a scintillation counter (Perkin Elmer Microbeta instrument). Nonspecific binding was determined in the presence of unlabeled 1 μM CP 55,940 (Sigma Aldrich, catalog #C1112). Binding data were analyzed using GraphPad Prism (GraphPad Software, Inc. San Diego, Calif.).

[3] = target: T1, hCB2; assay: hCB2 cAMP agonist assay (HEK-293 cells); format: cell-based
Experimental: as §1
cAMP assays were performed in HEK-293 cells stably expressing human CB 1 or CB2 receptors. […] Cells suspensions were centrifuged and the cells were washed once with PBS, were centrifuged again, and the cells were resuspended in HBSS (Hank's Balanced Salt Solution, Cellgro, Cat #21-022-CV) solution containing 10 mM HEPES and 0.1% fatty acid free BSA (Sigma, Cat #A0281). Cell suspensions were prepared at 1,500,000 cells per mL. Stock solutions of test substances (10 mM) in DMSO were diluted to 1 mM using 30% DMSO as diluent. Test substances of solutions (1 mM) were further diluted down to 3× of final assay concentrations in the above HBSS buffer containing 0.1% BSA in the presence of 90 uM forskolin (Sigma Cat#F6886). To perform the assay, 20 μL of cell suspension (1,500,000 cells/mL) were added to each well in 96 well plate and treated with 10 μL test substance solution diluted as described above. Cells and compounds were incubated at 37° C. for 30 minutes. Cells were lysed and cAMP concentration was measured using DiscoveRx-XS+ cAMP assay kit (DiscoveRx Corporation Ltd., Fremont, Calif., USA, Cat #90-0075-03), following the manufacturer's protocol. GraphPad Prism software was used to calculate EC50 values using sigmoidal dose response curve fitting. The maximal amount of cAMP produced by forskolin was defined as 100%.

[4] = target: T1, hCB2; assay: hCB2 GTPγS agonist assay (HEK-293 membranes); format: biochemical
Experimental: as §1, §2
^35S GTPγS binding assays were performed by incubating recombinant cell membranes prepared above (5 μg) in the presence of scintillation proximity assay beads (SPA beads, Catalog #RPNQ0252 GE Healthcare, Buckinghamshire, England) in GTPγS binding buffer [50 mM HEPES (pH 7.4), 100 mM NaCl, 5 mM MgCl2, 0.001% saponin (Sigma catalog #S4521)] supplemented with 20 uM GDP (Sigma catalog #G7127) in the presence or absence of test compound. The reaction was carried out in 96-well microplates with 0.1 nM [^35S]GTPγS (specific activity=1250 Ci/mmol; Perkin Elmer catalog #NEG030X250UC) in a final volume of 100 μL. After a 90 min room temperature incubation, the reaction was analyzed using a scintillation counter (Perkin Elmer Microbeta instrument). Binding data were analyzed using GraphPad Prism.

[5] = cAMP agonist, HEK, 96-well, read-out: hCB2 EC50 (cAMP ag, nM, HEK (96-well))
[6] = GTPγS agonist, HEK membranes, read-out: hCB2 EC50 (GTPyS ag, nM, HEK)

T1 sequence (P34972 whole entry): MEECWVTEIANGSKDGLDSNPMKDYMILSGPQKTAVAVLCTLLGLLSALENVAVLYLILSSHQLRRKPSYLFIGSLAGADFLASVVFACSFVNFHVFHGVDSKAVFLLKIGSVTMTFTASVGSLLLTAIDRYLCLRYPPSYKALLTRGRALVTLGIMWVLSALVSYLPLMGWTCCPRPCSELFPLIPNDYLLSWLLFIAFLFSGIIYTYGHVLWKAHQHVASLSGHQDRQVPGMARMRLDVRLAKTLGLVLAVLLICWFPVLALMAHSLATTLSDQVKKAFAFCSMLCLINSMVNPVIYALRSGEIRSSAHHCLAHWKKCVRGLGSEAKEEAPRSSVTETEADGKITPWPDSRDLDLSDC

SMILES: CCCn1c(C(=O)c2c(C)n(CC)c3ccccc23)cc2ccsc21 [Compound I-50]
- IC50 ([1]; hCB2 IC50 (CP displ, nM, HEK)): < 100 nM
- IC50 ([2]; hCB1 IC50 (CP displ, nM, HEK)): 1000 to 10000 nM
- EC50 [3]: < 100 nM
- EC50 [4]: < 100 nM

SMILES: CCn1c(C(=O)c2c(C)n(CCCCl)c3ccccc23)cc2ccsc21 [Compound I-18]
- IC50 ([1]; hCB2 IC50 (CP displ, nM, HEK)): < 100 nM
- IC50 ([2]; hCB1 IC50 (CP displ, nM, HEK)): 100 to 1000 nM
- EC50 [3]: < 100 nM
- EC50 [4]: < 100 nM

SMILES: Cc1c(C(=O)c2cc3ccccc3[nH]2)c2ccsc2n1CCN1CCOCC1 [Compound I-10]
- IC50 ([1]; hCB2 IC50 (CP displ, nM, HEK)): 100 to 1000 nM
- IC50 ([2]; hCB1 IC50 (CP displ, nM, HEK)): 1000 to 10000 nM

SMILES: CCCn1c(C)c(C(=O)c2cc3occc3[nH]2)c2ccccc21 [Compound I-71]
- IC50 ([1]; hCB2 IC50 (CP displ, nM, HEK)): 1000 to 10000 nM
- IC50 ([2]; hCB1 IC50 (CP displ, nM, HEK)): > 10000 nM

SMILES: C=Cn1c(C)c(C(=O)c2cc3ccsc3n2CC)c2ccccc21 [Compound I-24]
- IC50 ([1]; hCB2 IC50 (CP displ, nM, HEK)): 100 to 1000 nM
- hCB1 IC50 (CP displ, nM, HEK) [2]: B/C
- EC50 [3, 5]: < 100 nM
- EC50 [4, 6]: 100 to 1000 nM

SMILES: CCCn1c(C)c(C(=O)c2cc3cc(C)n(CCC)c3s2)c2ccccc21 [Compound I-63]
- IC50 ([1]; hCB2 IC50 (CP displ, nM, HEK)): 100 to 1000 nM

SMILES: CCCn1c(C)c(C(=O)c2cc3ccsc3n2CCC)c2cc(Cl)ccc21 [Compound I-52]
- IC50 ([1]; hCB2 IC50 (CP displ, nM, HEK)): 100 to 1000 nM
- IC50 ([2]; hCB1 IC50 (CP displ, nM, HEK)): 1000 to 10000 nM
- EC50 [3]: 100 to 1000 nM
- EC50 [4]: 100 to 1000 nM

SMILES: CCCn1c(C)c(C(=O)c2c(C)n(CCC)c3sccc23)c2ccccc21 [Compound I-7]
- IC50 ([1]; hCB2 IC50 (CP displ, nM, HEK)): 100 to 1000 nM
- IC50 ([2]; hCB1 IC50 (CP displ, nM, HEK)): 1000 to 10000 nM

SMILES: CCCn1c(C(=O)c2c[nH]c3ncccc23)cc2ccsc21 [Compound I-43]
- IC50 ([1]; hCB2 IC50 (CP displ, nM, HEK)): 1000 to 10000 nM
- IC50 ([2]; hCB1 IC50 (CP displ, nM, HEK)): > 10000 nM
- EC50 [4, 6]: 100 to 1000 nM

SMILES: CCCn1c(C)c(C(=O)c2cc3cc(C)n(CCC)c3s2)c2ccccc21 [Compound I-56]
- IC50 ([1]; hCB2 IC50 (CP displ, nM, HEK)): < 100 nM
- IC50 ([2]; hCB1 IC50 (CP displ, nM, HEK)): 1000 to 10000 nM
- EC50 [3]: < 100 nM
- EC50 [4]: < 100 nM

SMILES: Cc1[nH]c2sccc2c1C(=O)c1cccc2ccccc12 [Compound I-3]
- IC50 ([1]; hCB2 IC50 (CP displ, nM, HEK)): 1000 to 10000 nM
- IC50 ([2]; hCB1 IC50 (CP displ, nM, HEK)): > 10000 nM
- EC50 [4]: < 100 nM

SMILES: Cc1c(C(=O)c2cccc3ccccc23)c2ccsc2n1CCN1CCOCC1 [Compound I-5]
- IC50 ([1]; hCB2 IC50 (CP displ, nM, HEK)): < 100 nM
- IC50 ([2]; hCB1 IC50 (CP displ, nM, HEK)): 100 to 1000 nM
- EC50 [4]: < 100 nM

SMILES: CCCn1c(C(=O)c2c(C)[nH]c3sccc23)cc2ccccc21 [Compound I-13]
- IC50 ([1]; read-out: hCB2 IC50 (CP displ, nM, HEK)): > 10000 nM
- IC50 ([2]; read-out: hCB1 IC50 (CP displ, nM, HEK)): > 10000 nM

SMILES: CCCn1c(C)c(C(=O)c2cccc3ccccc23)c2sccc21 [Compound I-12]
- IC50 ([1]; hCB2 IC50 (CP displ, nM, HEK)): 100 to 1000 nM
- IC50 ([2]; hCB1 IC50 (CP displ, nM, HEK)): 1000 to 10000 nM
- EC50 [4]: < 100 nM

SMILES: CCn1c(C(=O)c2c(C)n(CCC(=O)O)c3ccccc23)cc2ccsc21 [Compound I-27, 3-(3-(6-ethyl-6H-thieno[2,3-b]pyrrole-5-carbonyl)-2-methyl-1H-indol-1-yl)propanoic acid]
- IC50 ([1]; hCB2 IC50 (CP displ, nM, HEK)): 100 to 1000 nM
- IC50 ([2]; hCB1 IC50 (CP displ, nM, HEK)): > 10000 nM
- EC50 [3, 5]: 100 to 1000 nM

SMILES: CCCn1c(C)c(C(=O)c2cc3ccsc3n2CCC)c2cc(OC)ccc21 [Compound I-61]
- IC50 ([1]; hCB2 IC50 (CP displ, nM, HEK)): < 100 nM
- IC50 ([2]; hCB1 IC50 (CP displ, nM, HEK)): 100 to 1000 nM
- EC50 [3]: 100 to 1000 nM

SMILES: CCCn1c(C)c(C(=O)c2cc3cc(C)[nH]c3s2)c2ccccc21 [Compound I-75]
- IC50 ([1]; hCB2 IC50 (CP displ, nM, HEK)): 1000 to 10000 nM
- IC50 ([2]; hCB1 IC50 (CP displ, nM, HEK)): > 10000 nM

SMILES: CCCn1c(C)c(C(=O)c2cccc3ccccc23)c2ccsc21 [Compound I-2]
- IC50 ([1]; hCB2 IC50 (CP displ, nM, HEK)): 100 to 1000 nM
- IC50 ([2]; hCB1 IC50 (CP displ, nM, HEK)): 1000 to 10000 nM
- EC50 [4]: 100 to 1000 nM

SMILES: Cc1[nH]c2ccsc2c1C(=O)c1cccc2ccccc12 [Compound I-4]
- IC50 ([1]; hCB2 IC50 (CP displ, nM, HEK)): 1000 to 10000 nM
- IC50 ([2]; hCB1 IC50 (CP displ, nM, HEK)): > 10000 nM
- EC50 [4, 6]: 1000 to 10000 nM

SMILES: Cc1c(C(=O)c2cccc3ccccc23)c2sccc2n1CCN1CCOCC1 [Compound I-1]
- IC50 ([1]; hCB2 IC50 (CP displ, nM, HEK)): < 100 nM
- IC50 ([2]; hCB1 IC50 (CP displ, nM, HEK)): 100 to 1000 nM
- EC50 [4]: < 100 nM

From patent publication US20130178453A1, “Cannabinoid Agonists” (priority 2010, published 2013)
